Tests used:
[1] = target: T1, SMARCA4-HiBiT HeLa cells (protein which is expressed from the SMARCA4 gene) (Homo sapiens, UniProt P51532); experiment: SMARCA4 degradation assay (HiBiT-fusion HeLa cell line, 24 h, luminescence); format: cell-based
T1 construct: protein which is expressed from the SMARCA2 and SMARCA4 genes; host or cells: HeLa (SMARCA4-HiBiT engineered line)
How it was run: (§1)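 HiBiT-fusion HeLa lines, 8,000 cells/well, overnight attachment; cpd 10-pt series (typically 10 μM–300 pM), 24 h, 37° C. Lysis with LgBiT + HiBiT substrate, 10 min shaking at RT, luminescence read. DC50 from dose-response fit; % degradation also scored at 1 μM.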

[2] = target: T2, SMARCA2-HiBiT HeLa cells (protein which is expressed from the SMARCA2 gene) (Homo sapiens, UniProt P51531); experiment: SMARCA2 degradation assay (HiBiT-fusion HeLa cell line, 24 h, luminescence); format: cell-based
T2 construct: protein which is expressed from the SMARCA2 and SMARCA4 genes; host or cells: HeLa (SMARCA2-HiBiT engineered line)
T2 sequence (P51531 whole entry, the tested form may be a part): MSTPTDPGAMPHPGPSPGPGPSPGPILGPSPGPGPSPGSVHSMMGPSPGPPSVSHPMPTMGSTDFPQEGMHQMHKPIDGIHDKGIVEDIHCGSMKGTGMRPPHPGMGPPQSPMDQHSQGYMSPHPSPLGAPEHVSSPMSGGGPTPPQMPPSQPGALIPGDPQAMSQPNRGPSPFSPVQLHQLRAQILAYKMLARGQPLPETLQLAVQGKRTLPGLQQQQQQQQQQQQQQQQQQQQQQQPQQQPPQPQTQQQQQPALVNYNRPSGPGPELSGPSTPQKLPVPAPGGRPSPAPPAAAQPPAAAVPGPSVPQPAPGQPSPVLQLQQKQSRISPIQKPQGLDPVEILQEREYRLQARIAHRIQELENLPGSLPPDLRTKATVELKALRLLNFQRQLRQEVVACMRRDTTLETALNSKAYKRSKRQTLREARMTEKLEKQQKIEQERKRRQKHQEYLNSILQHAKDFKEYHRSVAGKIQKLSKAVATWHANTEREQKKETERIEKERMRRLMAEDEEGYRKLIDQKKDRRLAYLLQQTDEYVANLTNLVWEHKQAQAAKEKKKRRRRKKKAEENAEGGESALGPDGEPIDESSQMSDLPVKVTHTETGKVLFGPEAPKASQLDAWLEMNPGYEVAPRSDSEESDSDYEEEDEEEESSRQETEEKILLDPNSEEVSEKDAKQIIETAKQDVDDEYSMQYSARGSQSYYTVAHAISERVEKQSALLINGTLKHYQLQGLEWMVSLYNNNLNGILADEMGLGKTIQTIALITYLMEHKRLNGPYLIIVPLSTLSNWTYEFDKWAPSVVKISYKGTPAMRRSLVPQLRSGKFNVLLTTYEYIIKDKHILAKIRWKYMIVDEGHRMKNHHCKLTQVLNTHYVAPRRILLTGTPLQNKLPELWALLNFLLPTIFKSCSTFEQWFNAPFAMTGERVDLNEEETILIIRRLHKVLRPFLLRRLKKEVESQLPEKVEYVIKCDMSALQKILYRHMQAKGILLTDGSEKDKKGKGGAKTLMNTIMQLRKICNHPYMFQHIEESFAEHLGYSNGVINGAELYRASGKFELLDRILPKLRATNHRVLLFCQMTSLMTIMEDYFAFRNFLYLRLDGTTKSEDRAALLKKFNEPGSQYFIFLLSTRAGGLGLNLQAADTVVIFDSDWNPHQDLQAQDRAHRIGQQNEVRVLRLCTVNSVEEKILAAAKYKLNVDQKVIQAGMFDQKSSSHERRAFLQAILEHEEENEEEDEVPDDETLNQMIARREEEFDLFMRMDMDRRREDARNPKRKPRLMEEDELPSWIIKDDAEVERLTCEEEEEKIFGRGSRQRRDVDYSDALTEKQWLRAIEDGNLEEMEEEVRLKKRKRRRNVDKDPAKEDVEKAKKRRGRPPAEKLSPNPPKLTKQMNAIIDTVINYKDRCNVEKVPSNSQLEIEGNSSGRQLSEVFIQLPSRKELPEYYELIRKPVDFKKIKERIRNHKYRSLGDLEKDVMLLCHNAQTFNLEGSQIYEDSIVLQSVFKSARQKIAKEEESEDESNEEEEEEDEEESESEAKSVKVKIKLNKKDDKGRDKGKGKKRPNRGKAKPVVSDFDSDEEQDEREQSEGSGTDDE
How it was run: as §1

T1 sequence (P51532 whole entry, the tested form may be a part): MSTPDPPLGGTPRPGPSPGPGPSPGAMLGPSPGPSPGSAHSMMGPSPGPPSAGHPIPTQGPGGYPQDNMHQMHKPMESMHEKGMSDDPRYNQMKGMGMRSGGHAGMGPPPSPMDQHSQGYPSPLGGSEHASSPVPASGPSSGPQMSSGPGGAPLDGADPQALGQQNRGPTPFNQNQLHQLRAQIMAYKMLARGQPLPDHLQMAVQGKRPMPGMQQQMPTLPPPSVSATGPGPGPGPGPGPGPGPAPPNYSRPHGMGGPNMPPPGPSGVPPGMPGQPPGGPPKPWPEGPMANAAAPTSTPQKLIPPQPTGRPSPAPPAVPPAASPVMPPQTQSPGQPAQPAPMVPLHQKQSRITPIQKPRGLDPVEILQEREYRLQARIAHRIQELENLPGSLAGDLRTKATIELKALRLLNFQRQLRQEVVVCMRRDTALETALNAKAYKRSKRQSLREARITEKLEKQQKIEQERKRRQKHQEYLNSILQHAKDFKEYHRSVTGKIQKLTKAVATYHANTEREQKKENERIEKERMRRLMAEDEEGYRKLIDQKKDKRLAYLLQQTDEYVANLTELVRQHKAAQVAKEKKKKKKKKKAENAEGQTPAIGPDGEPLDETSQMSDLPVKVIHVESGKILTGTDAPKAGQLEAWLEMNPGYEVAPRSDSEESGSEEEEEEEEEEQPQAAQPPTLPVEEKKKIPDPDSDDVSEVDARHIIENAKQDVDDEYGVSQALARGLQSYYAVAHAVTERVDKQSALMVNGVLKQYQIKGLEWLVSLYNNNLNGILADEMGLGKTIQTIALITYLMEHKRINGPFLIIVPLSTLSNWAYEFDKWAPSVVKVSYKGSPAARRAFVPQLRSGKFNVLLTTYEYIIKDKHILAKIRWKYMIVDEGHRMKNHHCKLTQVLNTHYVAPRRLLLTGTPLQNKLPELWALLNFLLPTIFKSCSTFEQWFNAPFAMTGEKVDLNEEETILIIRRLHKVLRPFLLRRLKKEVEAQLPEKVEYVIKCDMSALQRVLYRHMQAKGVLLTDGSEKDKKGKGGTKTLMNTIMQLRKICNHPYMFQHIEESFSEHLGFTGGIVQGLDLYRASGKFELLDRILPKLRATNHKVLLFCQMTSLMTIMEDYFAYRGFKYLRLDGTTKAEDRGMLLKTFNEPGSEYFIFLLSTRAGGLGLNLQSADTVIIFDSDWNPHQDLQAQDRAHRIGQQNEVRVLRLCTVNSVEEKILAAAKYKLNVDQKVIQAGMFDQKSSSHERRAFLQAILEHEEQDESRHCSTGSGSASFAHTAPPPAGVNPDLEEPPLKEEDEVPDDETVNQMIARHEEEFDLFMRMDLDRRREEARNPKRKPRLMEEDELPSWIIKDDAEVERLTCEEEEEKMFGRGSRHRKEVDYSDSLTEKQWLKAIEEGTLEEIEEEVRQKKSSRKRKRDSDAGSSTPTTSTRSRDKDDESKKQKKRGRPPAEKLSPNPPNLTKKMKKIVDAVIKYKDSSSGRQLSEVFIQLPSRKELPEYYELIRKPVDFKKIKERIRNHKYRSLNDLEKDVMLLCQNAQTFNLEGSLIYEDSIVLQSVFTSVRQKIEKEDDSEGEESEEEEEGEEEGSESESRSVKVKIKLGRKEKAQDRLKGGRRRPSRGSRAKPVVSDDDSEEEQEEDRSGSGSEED

Structure (SMILES)	DC50 [1]	inhibition at 1 µM [1]	DC50 [2]	SMARCA2 % Degradation @ 1 μM [2]
C[C@H]1CN(c2ccnc(C#CCNC(=O)c3cc4ncccn4n3)n2)CCN1c1cc(-c2ccccc2O)nnc1N [Compound P-48, (S)-N-(3-(4-(4-(3-amino-6-(2-hydroxyphenyl)pyridazin-4-yl)-3-methylpiperazin-1-yl)pyrimidin-2-yl)prop-2-yn-1-yl)pyrazolo[1,5-a]pyrimidine-2-carboxamide]	0.05 to 0.5 µM	30 to 70%	0.05 to 0.5 µM	++ (++=30-70%)
C[C@@H]1CN(c2ccnc(C#CCNC(=O)c3cc4ncccn4n3)n2)CCN1c1cc(-c2ccccc2O)nnc1N [Compound P-49, (R)-N-(3-(4-(4-(3-amino-6-(2-hydroxyphenyl)pyridazin-4-yl)-3-methylpiperazin-1-yl)pyrimidin-2-yl)prop-2-yn-1-yl)pyrazolo[1,5-a]pyrimidine-2-carboxamide]	0.5 to 5 µM	< 30%	> 5 µM	+ (+=<30%)
C[C@@H]1CN(c2cc(-c3ccccc3O)nnc2N)CCN1c1ccnc(C#CCNC(=O)c2cc3ncccn3n2)n1 [Compound P-50, (R)-N-(3-(4-(4-(3-amino-6-(2-hydroxyphenyl)pyridazin-4-yl)-2-methylpiperazin-1-yl)pyrimidin-2-yl)prop-2-yn-1-yl)pyrazolo[1,5-a]pyrimidine-2-carboxamide]	< 0.05 µM	30 to 70%	< 0.05 µM	++ (++=30-70%)
CCC1CN(c2ccnc(C#CCNC(=O)c3cc4ncccn4n3)n2)CCN1c1cc(-c2ccccc2O)nnc1N (stereo not shown) [Compound P-51, N-(3-(4-(4-(3-amino-6-(2-hydroxyphenyl)pyridazin-4-yl)-3-ethylpiperazin-1-yl)pyrimidin-2-yl)prop-2-yn-1-yl)pyrazolo[1,5-a]pyrimidine-2-carboxamide]	0.05 to 0.5 µM	30 to 70%	0.05 to 0.5 µM	++ (++=30-70%)
Nc1nnc(-c2ccccc2O)cc1N1CCN(c2ccnc(C#CCNC(=O)c3cc4ccc(F)cc4o3)n2)CC1 [Compound P-52, N-(3-(4-(4-(3-amino-6-(2-hydroxyphenyl)pyridazin-4-yl)piperazin-1-yl)pyrimidin-2-yl)prop-2-yn-1-yl)-6-fluorobenzofuran-2-carboxamide]	0.05 to 0.5 µM	30 to 70%	0.05 to 0.5 µM	++ (++=30-70%)
Nc1nnc(-c2ccccc2O)cc1N1CCN(c2ccnc(C#CCNC(=O)c3noc4ccccc34)n2)CC1 [Compound P-54, N-(3-(4-(4-(3-amino-6-(2-hydroxyphenyl)pyridazin-4-yl)piperazin-1-yl)pyrimidin-2-yl)prop-2-yn-1-yl)benzo[d]isoxazole-3-carboxamide]	0.05 to 0.5 µM	30 to 70%	0.05 to 0.5 µM	++ (++=30-70%)
Nc1nnc(-c2ccccc2O)cc1N1CCN(c2ccnc(C#CCNC(=O)c3coc4ccccc34)n2)CC1 [Compound P-55, N-(3-(4-(4-(3-amino-6-(2-hydroxyphenyl)pyridazin-4-yl)piperazin-1-yl)pyrimidin-2-yl)prop-2-yn-1-yl)benzofuran-3-carboxamide]	0.05 to 0.5 µM	30 to 70%	0.05 to 0.5 µM	++ (++=30-70%)
Nc1nnc(-c2ccccc2O)cc1N1CCN(c2ccnc(C#CCNC(=O)c3ccncc3)n2)CC1 [Compound P-56, N-(3-(4-(4-(3-amino-6-(2-hydroxyphenyl)pyridazin-4-yl)piperazin-1-yl)pyrimidin-2-yl)prop-2-yn-1-yl)isonicotinamide]	0.05 to 0.5 µM	30 to 70%	0.05 to 0.5 µM	++ (++=30-70%)
Nc1nnc(-c2ccccc2O)cc1N1CCN(c2ccnc(C#CCNC(=O)c3cc4n(n3)CCCO4)n2)CC1 [Compound P-57, N-(3-(4-(4-(3-amino-6-(2-hydroxyphenyl)pyridazin-4-yl)piperazin-1-y1)pyrimidin-2-yl)prop-2-yn-1-yl)-6,7-dihydro-5H-pyrazolo[5,1-b][1,3]oxazine-2-carboxamide]	< 0.05 µM	30 to 70%	0.05 to 0.5 µM	++ (++=30-70%)
Nc1nnc(-c2ccccc2O)cc1N1CCN(c2ccnc(C#CCNC(=O)c3cc4n(n3)CCOC4)n2)CC1 [Compound P-58, N-(3-(4-(4-(3-amino-6-(2-hydroxyphenyl)pyridazin-4-yl)piperazin-1-yl)pyrimidin-2-yl)prop-2-yn-1-yl)-6,7-dihydro-4H-pyrazolo[5,1-c][1,4]oxazine-2-carboxamide]	0.05 to 0.5 µM	30 to 70%	0.05 to 0.5 µM	++ (++=30-70%)
Nc1nnc(-c2ccccc2O)cc1N1CCN(c2ccnc(C#CCNC(=O)c3cc4n(n3)CCC4)n2)CC1 [Compound P-59, N-(3-(4-(4-(3-amino-6-(2-hydroxyphenyl)pyridazin-4-yl)piperazin-1-yl)pyrimidin-2-yl)prop-2-yn-1-yl)-5,6-dihydro-4H-pyrrolo[1,2-b]pyrazole-2-carboxamide]	> 5 µM	–	0.05 to 0.5 µM	++ (++=30-70%)
Nc1nnc(-c2ccccc2O)cc1N1CCN(c2ccnc(C#CCNC(=O)c3cn4ccncc4n3)n2)CC1 [Compound P-60, N-(3-(4-(4-(3-amino-6-(2-hydroxyphenyl)pyridazin-4-yl)piperazin-1-yl)pyrimidin-2-yl)prop-2-yn-1-yl)imidazo[1,2-a]pyrazinc-2-carboxamidc]	0.05 to 0.5 µM	30 to 70%	0.05 to 0.5 µM	++ (++=30-70%)
Nc1nnc(-c2ccccc2O)cc1N1CCN(c2ccnc(C#CCNC(=O)C3COc4ccccc4O3)n2)CC1 (stereo not shown) [Compound P-61, N-(3-(4-(4-(3-amino-6-(2-hydroxyphenyl)pyridazin-4-yl)piperazin-1-yl)pyrimidin-2-yl)prop-2-yn-1-yl)-2,3-dihydrobenzo[b][1,4]dioxine-2-carboxamide]	0.05 to 0.5 µM	30 to 70%	0.05 to 0.5 µM	++ (++=30-70%)
Cc1ncsc1C(=O)NCC#Cc1nccc(N2CCN(c3cc(-c4ccccc4O)nnc3N)CC2)n1 [Compound P-62, N-(3-(4-(4-(3-amino-6-(2-hydroxyphenyl)pyridazin-4-yl)piperazin-1-yl)pyrimidin-2-yl)prop-2-yn-1-yl)-4-methylthiazole-5-carboxamide]	0.05 to 0.5 µM	30 to 70%	0.05 to 0.5 µM	++ (++=30-70%)
Nc1nnc(-c2ccccc2O)cc1N1CCN(c2ccnc(C#CCNC(=O)c3cccc4ccoc34)n2)CC1 [Compound P-63, N-(3-(4-(4-(3-amino-6-(2-hydroxyphenyl)pyridazin-4-yl)piperazin-1-yl)pyrimidin-2-yl)prop-2-yn-1-yl)benzofuran-7-carboxamide]	0.05 to 0.5 µM	30 to 70%	0.05 to 0.5 µM	++ (++=30-70%)
Nc1nnc(-c2ccccc2O)cc1N1CCN(c2ccnc(C#CCNC(=O)c3ccc4ccccc4n3)n2)CC1 [Compound P-64, N-(3-(4-(4-(3-amino-6-(2-hydroxyphenyl)pyridazin-4-yl)piperazin-1-yl)pyrimidin-2-yl)prop-2-yn-1-yl)quinoline-2-carboxamide]	0.05 to 0.5 µM	30 to 70%	0.05 to 0.5 µM	++ (++=30-70%)
Nc1nnc(-c2ccccc2O)cc1N1CCN(c2ccnc(C#CCNC(=O)c3cnn4ccccc34)n2)CC1 [Compound P-65, N-(3-(4-(4-(3-amino-6-(2-hydroxyphenyl)pyridazin-4-yl)piperazin-1-yl)pyrimidin-2-yl)prop-2-yn-1-yl)pyrazolo[1,5-a]pyridine-3-carboxamide]	0.05 to 0.5 µM	30 to 70%	0.05 to 0.5 µM	++ (++=30-70%)
Nc1nnc(-c2ccccc2O)cc1N1CCN(c2ccnc(C#CCNC(=O)c3cnc4ccccn34)n2)CC1 [Compound P-66, N-(3-(4-(4-(3-amino-6-(2-hydroxyphenyl)pyridazin-4-yl)piperazin-1-yl)pyrimidin-2-yl)prop-2-yn-1-yl)imidazo[1,2-a]pyridine-3-carboxamide]	0.05 to 0.5 µM	30 to 70%	0.05 to 0.5 µM	++ (++=30-70%)
Cn1cnc(C(=O)NCC#Cc2nccc(N3CCN(c4cc(-c5ccccc5O)nnc4N)CC3)n2)c1 [Compound P-67, N-(3-(4-(4-(3-amino-6-(2-hydroxyphenyl)pyridazin-4-yl)piperazin-1-yl)pyrimidin-2-yl)prop-2-yn-1-yl)-1-methyl-1H-imidazole-4-carboxamide]	0.05 to 0.5 µM	< 30%	0.05 to 0.5 µM	+ (+=<30%)
CC(=O)NCC#Cc1nccc(N2CCN(c3cc(-c4ccccc4O)nnc3N)CC2)n1 [Compound P-68, N-(3-(4-(4-(3-amino-6-(2-hydroxyphenyl)pyridazin-4-yl)piperazin-1-yl)pyrimidin-2-yl)prop-2-yn-1-yl)acetamide]	> 5 µM	–	0.05 to 0.5 µM	+ (+=<30%)
Nc1nnc(-c2ccccc2O)cc1N1CCN(c2ccnc(C#CCNC(=O)c3cc4n(n3)CCCC4)n2)CC1 [Compound P-69, N-(3-(4-(4-(3-amino-6-(2-hydroxyphenyl)pyridazin-4-yl)piperazin-1-yl)pyrimidin-2-yl)prop-2-yn-1-yl)-4,5,6,7-tetrahydropyrazolo[1,5-a]pyridine-2-carboxamide]	< 0.05 µM	30 to 70%	0.05 to 0.5 µM	++ (++=30-70%)

From patent US20260265238A1, “COMPOUNDS AND PHARMACEUTICAL COMPOSITIONS THAT DEGRADE SWI/SNF-RELATED MATRIX-ASSOCIATED ACTIN-DEPENDENT REGULATOR OF CHROMATIN SUBFAMILY A” (Plexium, Inc., priority 2023, published 2026)
